The values below come from patent publication US9562085B2, “Antimicrobial peptide” (priority 2013, dated 2017).

Some results are limits rather than exact numbers.

One assay relates to S. aureus JAR. It is filed as cell-based. Particulars: JAR, 2 h. As to the method: S. aureus JAR is described in Campoccia et al. (Int. J. Artif. Organs, 2008 September; 31(9):841-7).
For the in vitro killing assay with P10 variants, S. aureus JAR ([…] CFU/ml) were incubated for 2 hours at 37° C. with various concentrations of the peptides in PBS or in PBS/human plasma (1/1, v/v). […] The LC99.9 is the average value of two independent experiments.
Regarding “Ac-LAREYKKIVEKLKHWLRQVLRTLR-NH2 [Peptide 1302-39, JLAREYKKIVEKLKHWLRQVLRTLRB]”, the “LC99.9 (μM) (50% plasma)” value was determined as 102.4 µM and the “LC99.9 (μM) (PBS)” value was found to be 3.2 µM.
Take “Ac-LAREYKKIVEKLKKWLRQVLRTLR-NH2 [Peptide 1302-38, JLAREYKKIVEKLKKWLRQVLRTLRB]”: the “LC99.9 (μM) (50% plasma)” value came out at 102.4 µM and the “LC99.9 (μM) (PBS)” value turned out to be 2.4 µM.
The matching figures for “Ac-LAREYKKIVEKLKRFLRQVLRTLR-NH2 [Peptide 1302-40, JLAREYKKIVEKLKRFLRQVLRTLRB]”: 76.8 µM and 1.6 µM.
On to “Ac-LAREYKKIVEKLKRWLHQVLRTLR-NH2 [Peptide 1302-41, JLAREYKKIVEKLKRWLHQVLRTLRB]”, for which the “LC99.9 (μM) (50% plasma)” value amounted to 102.4 µM and the “LC99.9 (μM) (PBS)” value was determined as 1.6 µM.
For “Ac-LAREYKKIVEKLKRWLRAVLRTLR-NH2 [Peptide 1302-43, JLAREYKKIVEKLKRWLRAVLRTLRB]”, in that order: 102.4 µM and 1.6 µM.
Take “Ac-LAREYKKIVEKLKRWLRNVLRTLR-NH2 [Peptide 1302-42, JLAREYKKIVEKLKRWLRNVLRTLRB]”: the “LC99.9 (μM) (50% plasma)” value turned out to be 76.8 µM and the “LC99.9 (μM) (PBS)” value was determined as 1.6 µM.
For “Ac-LAREYKKIVEKLKRWLRQLLRTLR-NH2 [Peptide 1302-46, JLAREYKKIVEKLKRWLRQLLRTLRB]”, in that order: 102.4 µM and 1.6 µM.
For “Ac-LAREYKKIVEKLKRWLRQVIRTLR-NH2 [Peptide 1302-47, JLAREYKKIVEKLKRWLRQVIRTLRB]”, in that order: 76.8 µM and 1.6 µM.
The matching figures for “Ac-LAREYKKIVEKLKRWLRQVL-NH2 [Peptide 1302-60, JLAREYKKIVEKLKRWLRQVLB]”: 102.4 µM and 1.6 µM.
Take “Ac-LAREYKKIVEKLKRWLRQVLHTLR-NH2 [Peptide 1302-51, JLAREYKKIVEKLKRWLRQVLHTLRB]”: the “LC99.9 (μM) (50% plasma)” value amounted to 102.4 µM and the “LC99.9 (μM) (PBS)” value was 1.6 µM.
On to “Ac-LAREYKKIVEKLKRWLRQVLKTLR-NH2 [Peptide 1302-50, JLAREYKKIVEKLKRWLRQVLKTLRB]”, for which the “LC99.9 (μM) (50% plasma)” value came out at 51.2 µM and the “LC99.9 (μM) (PBS)” value came to 0.8 µM.
As for “Ac-LAREYKKIVEKLKRWLRQVLRALR-NH2 [Peptide 1302-54, JLAREYKKIVEKLKRWLRQVLRALRB]”, the “LC99.9 (μM) (50% plasma)” value stood at 51.2 µM and the “LC99.9 (μM) (PBS)” value was 0.8 µM.
For the substance “Ac-LAREYKKIVEKLKRWLRQVLRNLR-NH2 [Peptide 1302-53, JLAREYKKIVEKLKRWLRQVLRNLRB]”, the “LC99.9 (μM) (50% plasma)” value turned out to be 51.2 µM and the “LC99.9 (μM) (PBS)” value came to 1.6 µM.
For “Ac-LAREYKKIVEKLKRWLRQVLRQLR-NH2 [Peptide 1302-52, JLAREYKKIVEKLKRWLRQVLRQLRB]”, in that order: 76.8 µM and 1.6 µM.
The matching figures for “Ac-LAREYKKIVEKLKRWLRQVLRT-NH2 [Peptide 1302-57, JLAREYKKIVEKLKRWLRQVLRTB]”: 51.2 µM and 1.6 µM.
The matching figures for “Ac-LAREYKKIVEKLKRWLRQVLRTLH-NH2 [Peptide 1302-55, JLAREYKKIVEKLKRWLRQVLRTLHB]”: 102.4 µM and 1.2 µM.
As for “Ac-LAREYKKIVEKLKRWLRQVVRTLR-NH2 [Peptide 1302-48, JLAREYKKIVEKLKRWLRQVVRTLRB]”, the “LC99.9 (μM) (50% plasma)” value stood at 76.8 µM and the “LC99.9 (μM) (PBS)” value is 1.2 µM.
For the substance “Ac-LAREYKKIVEKLKRWLRSVLRTLR-NH2 [Peptide 1302-44, JLAREYKKIVEKLKRWLRSVLRTLRB]”, the “LC99.9 (μM) (50% plasma)” value amounted to 76.8 µM and the “LC99.9 (μM) (PBS)” value was determined as 1.6 µM.
In the case of “Ac-LAREYKKIVEKLKRWLRTVLRTLR-NH2 [Peptide 1302-45, JLAREYKKIVEKLKRWLRTVLRTLRB]”, the “LC99.9 (μM) (50% plasma)” value worked out at 76.8 µM and the “LC99.9 (μM) (PBS)” value worked out at 1.6 µM.
As to “Ac-LAREYKKIVEKVKRWLRQVLRTLR-NH2 [Peptide 1302-34, JLAREYKKIVEKVKRWLRQVLRTLRB]”, the “LC99.9 (μM) (50% plasma)” value came out at 102.4 µM and the “LC99.9 (μM) (PBS)” value amounted to 3.2 µM.
Regarding “Ac-LAREYKKIVERLKRWLRQVLRTLR-NH2 [Peptide 1302-31, JLAREYKKIVERLKRWLRQVLRTLRB]”, the “LC99.9 (μM) (50% plasma)” value worked out at 102.4 µM and the “LC99.9 (μM) (PBS)” value stood at 3.2 µM.
Regarding “Ac-LAREYKKIVPKLKRWLRQVPRTLR-NH2 [Peptide 1302-15, JLAREYKKIVPKLKRWLRQVPRTLRB]”, the “LC99.9 (μM) (50% plasma)” value is 76.8 µM and the “LC99.9 (μM) (PBS)” value is above 3.2 µM.
“Ac-LAREYKKPVEKLKRWLPQVLRTLR-NH2 [Peptide 1302-16, JLAREYKKPVEKLKRWLPQVLRTLRB]”: the “LC99.9 (μM) (50% plasma)” value amounted to 102.4 µM and the “LC99.9 (μM) (PBS)” value was above 3.2 µM.
For the substance “Ac-LAREYKPIVEKLKRWPRQVLRTLR-NH2 [Peptide 1302-13, JLAREYKPIVEKLKRWPRQVLRTLRB]”, the “LC99.9 (μM) (50% plasma)” value was above 102.4 µM and the “LC99.9 (μM) (PBS)” value was above 3.2 µM.
For “Ac-LAREYKRIVEKLKRWLRQVLRTLR-NH2 [Peptide 1302-29, JLAREYKRIVEKLKRWLRQVLRTLRB]”, in that order: 102.4 µM and 1.6 µM.
For “Ac-LAREYPKIVEKLKRWLRPVLRTLR-NH2 [Peptide 1302-14, JLAREYPKIVEKLKRWLRPVLRTLRB]”, the “LC99.9 (μM) (50% plasma)” value was determined as 102.4 µM and the “LC99.9 (μM) (PBS)” value stood at 3.2 µM.
On to “Ac-LAREYRKIVEKLKRWLRQVLRTLR-NH2 [Peptide 1302-27, JLAREYRKIVEKLKRWLRQVLRTLRB]”, for which the “LC99.9 (μM) (50% plasma)” value was 76.8 µM and the “LC99.9 (μM) (PBS)” value was 0.8 µM.
The matching figures for “Ac-LARQYKKIVEKLKRWLRQVLRTLR-NH2 [Peptide 1302-25, JLARQYKKIVEKLKRWLRQVLRTLRB]”: 51.2 µM and 1.2 µM.
For “Ac-LLREYKKIVEKLKRWLRQVLRTLR-NH2 [Peptide 1302-20, JLLREYKKIVEKLKRWLRQVLRTLRB]”, in that order: 102.4 µM and 1.6 µM.
For the substance “Ac-LQREYKKIVEKLKRWLRQVLRTLR-NH2 [Peptide 1302-22, JLQREYKKIVEKLKRWLRQVLRTLRB]”, the “LC99.9 (μM) (50% plasma)” value was determined as 76.8 µM and the “LC99.9 (μM) (PBS)” value came to 1.6 µM.
The matching figures for “Ac-LVREYKKIVEKLKRWLRQVLRTLR-NH2 [Peptide 1302-21, JLVREYKKIVEKLKRWLRQVLRTLRB]”: 76.8 µM and 1.2 µM.
For “Ac-REYKKIVEKLKRWLRQVLRT-NH2 [Peptide 1302-58, JREYKKIVEKLKRWLRQVLRTB]”, in that order: 76.8 µM and 1.6 µM.
For “Ac-REYKKIVEKLKRWLRQVLRTLR-NH2 [Peptide 1302-56, JREYKKIVEKLKRWLRQVLRTLRB]”, the “LC99.9 (μM) (50% plasma)” value is 51.2 µM and the “LC99.9 (μM) (PBS)” value amounted to 1.6 µM.

Staying with this assay, now noted: S. aureus JAR, 2 hours at 37° C. in PBS/human plasma (1/1, v/v); concentration killing 99.9% of the bacteria; average of two experiments.
In the case of “Ac-LAREYKKIVEKLKRWLRQVARTLR-NH2 [Peptide 1302-49, JLAREYKKIVEKLKRWLRQVARTLRB]”, the “LC99.9 (μM) (50% plasma)” value came out at 51.2 µM.

The assay is the same for the next values; noted with them: S. aureus JAR, 2 hours at 37° C. in PBS; concentration killing 99.9% of the bacteria; average of two experiments.
“Ac-LAREYKKIVEKLKRWLRQVARTLR-NH2 [Peptide 1302-49, JLAREYKKIVEKLKRWLRQVARTLRB]”: the “LC99.9 (μM) (PBS)” value was 1.6 µM.
